{"source": "patent US6066642A", "about": "“Dihydropyridine-, pyridine-, benzopyran-4-one- and triazoloquinazoline derivative, their preparation and their use as adenosine receptor antagonists” (priority 1998, dated 2000)", "key": {"[1]": {"test_system": "A3 specific binding", "test": "A3 specific binding after blocking A1 and A2 specific binding sites with a xanthine amino congener", "details": "A1 and A2 sites blocked with xanthine amino congener", "source_text": "Adenosine receptors have been implicated in the bronchoconstriction (BC) in allergic asthma."}, "[2]": {"test_system": "bak in 1321N astrocytoma cells", "test": "expression of bak, 1321N cells", "type": "cell-based", "details": "10 μM", "method": "(§1) Cells were fixed as following steps: 10 min with 1% formalin in PBS, 5 min with […] methanol and 2 min with ice cold acetone, then permebilized with 0.1% Nonidet P-40 for 20 min. After the preparation, the specimens were incubated step by step: 10% goat serum in PBS for 20 min, mouse monoclonal anti-bak antibody (5 μg/ml PBS-BSA) for 60 min, Rhodamine (TRITC)-conjugated AffiniPure Goat Anti-mouse IgG (H+L) in PBS-BSA for 60 min. The specimens were washed 3-5 times with PBS after every step. The glass slides were stored at 4° C. in the dark.\n(§2) Various other cell lines were investigated for the expression of bak in response to the A3 agonist."}, "[3]": {"test_system": "bak protein in U-937 cells", "test": "expression of apoptosis-inducing protein bak by immunofluorescence, U-937 cells", "type": "cell-based", "method": "as §1\n(§3) The mechanism of the apoptosis observed in response to either A3 agonists was investigated."}, "[4]": {"test_system": "bak protein in HL-60 cells", "test": "expression of apoptosis-inducing protein bak by immunofluorescence, HL-60 cells", "type": "cell-based", "method": "as §1, §3"}, "[5]": {"test_system": "U-937 cells", "test": "live cell counting with trypan blue (cell death/proliferation), U-937 cells", "type": "cell-based", "method": "(§4) The HL-60 cells were maintained in RPMI 1640 supplmented with 10% fetal calf serum, 100 units/ml penicillin, […] streptomycin and 2 mM L-glutamine. The cells were split every third day, and 2 days before each experiment cultures were diluted to 2×10^5 cells/ml. For analysis of DNA content, aliquots of 2 ml were placed into 12-well flat-bottomed plates (Costar, Cambridge, Mass., U.S.A.) containing 2~6 μl test-compound solutions at defined concentrations or 6 μl DMSO (diluting medium). Live cell counting was carried out using 0.1% trypan blue.\n(§5) In the latter assay, cell death was studied in HL-60 cells (FIGS. 11A-B) and in U-937 cells (FIGS. 11C-D) over a time course of 9 days. Cells in culture receiving no drug treatment proliferated geometrically until nearly the end of the experiment."}, "[6]": {"test_system": "U-937 cells", "test": "apoptosis by flow cytometric DNA analysis, U-937 cells", "type": "cell-based", "quoted_text": "DNA content analysis by flow cytometry:\n(§8) Cells were fixed by adding ~10^7 cells suspended in 1 ml of PBS of 1 ml 80% ethanol at -20° C. and stored for 48-120 hrs. After the cells were washed twice with PBS, the cells were stained with 20 mg/ml chromomycin A3 dissolved in PBS containing 2 mM MgCl2 by incubation in subdued light (30 min; 4° C.). The cells were then analyzed using a FACScan flow cytometer (Becton Dickinson, Mountain View, Calif.)."}, "[7]": {"test_system": "HL-60 cells", "test": "live cell counting with trypan blue (cell death/proliferation), HL-60 cells", "type": "cell-based", "method": "as §4, §5"}, "[8]": {"test_system": "U-937 cells", "test": "in situ end-labeling of fragmented nuclear DNA (TUNEL), U-937 cells", "type": "cell-based", "method": "(§6) Cells were fixed by immersing slides in 4% methanol-free formaldehyde in PBS at pH 7.4, 4° C., for 25 min. Fixed cells were permeabilized in 0.2% Triton® X-100 in PBS at 4° C. for 5 min. After preincubation with […] Promega equilibration buffer for 10 min at room temperature, the cells were covered with 50 μl TdT incubation buffer and a coverslip and maintained at 37° C. for 60 min inside the dark humidified chamber to protect from dry and direct light. In order to stop the reaction, the coverslip was removed and the slides were immersed in 2×SSC for 15 min at room temperature. The cells were restained by propidium iodide 1 μg/ml in PBS for 15 min. After every step, the cells were rinsed 2-3 times with fresh PBS for 5 min each. Finally, the glass slides were sealed with nail polish. The slides were stored at 4° C. in the dark.\n(§7) The evidence that DNA strand breaks, characteristic of apoptosis, are induced by the A3 antagonists was obtained using in situ end-labelingin-situ of fragmented nuclear DNA by terminal deoxynucleotidyl transferase (TUNEL method, Cooke, H., Trends in Biotech., 10, 23 (1992)), which incorporates a fluorescent label at the 3'-ends. […] In the control cultures and in those treated with 10 nM Cl-IB-MECA alone, spontaneous apoptosis occured in only 5-7% of the cells (Table 17). […] The reversal of antagonist-induced apoptosis by the agonist is similar to that observed for the growth curves, except that both agonist and antagonist were applied at lower concentrations."}, "[9]": {"test_system": "HL-60 cells", "test": "apoptosis by flow cytometric DNA analysis, HL-60 cells", "type": "cell-based", "quoted_text": "DNA content analysis by flow cytometry:\nas §8"}, "[10]": {"test_system": "bak in MCF7 breast adenocarcinoma cells", "test": "expression of bak, MCF7 cells", "type": "cell-based", "details": "10 μM", "method": "as §1, §2"}, "[11]": {"test_system": "HL-60 cells", "test": "in situ end-labeling of fragmented nuclear DNA (TUNEL), HL-60 cells", "type": "cell-based", "method": "as §6, §7"}, "[12]": {"target": "T1, A2a receptors (Rattus norvegicus, UniProt P30543)", "T1 construct": "Displacement of specific [^3 H]; from tissue; host or cells: rat striatal membranes", "T1 sequence (P30543 whole entry)": "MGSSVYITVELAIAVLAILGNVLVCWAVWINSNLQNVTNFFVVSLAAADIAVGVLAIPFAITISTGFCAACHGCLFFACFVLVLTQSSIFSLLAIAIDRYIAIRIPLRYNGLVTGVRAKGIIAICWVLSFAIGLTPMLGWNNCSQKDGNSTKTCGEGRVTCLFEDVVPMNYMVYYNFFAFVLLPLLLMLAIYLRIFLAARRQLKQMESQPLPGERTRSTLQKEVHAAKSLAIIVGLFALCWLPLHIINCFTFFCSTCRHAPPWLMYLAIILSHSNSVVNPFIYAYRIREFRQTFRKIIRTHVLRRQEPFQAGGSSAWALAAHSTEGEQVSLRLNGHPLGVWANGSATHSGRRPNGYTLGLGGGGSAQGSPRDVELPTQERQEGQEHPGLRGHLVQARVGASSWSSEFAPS", "test": "radioligand binding, displacement of specific [3H]CGS 21680 binding in rat striatal membranes", "details": "Table 11; 10^-4 M; read-out: displacement of specific binding rA2A", "quoted_text": "^b Displacement of specific [^3 H]\nor as a percentage of specific binding displaced at 100 μM."}, "[13]": {"test_system": "Female Mongolian gerbils", "test": "bilateral carotid occlusion (stroke) in gerbils, survival and intact neurons", "type": "in vivo, Mongolian gerbil", "details": "for survival rate after ischemia: 100 μg/kg 15 min after occlusion; for intact neurons: 100 μg/kg", "quoted_text": "Control gerbils were injected with saline. The survival of the animals was followed as a function of time after ischemia.\nThe number of intact neurons was also counted."}, "[14]": {"test_system": "rabbit lung", "test": "bronchoconstriction / dynamic compliance (Cdyn) in allergic rabbits", "type": "in vivo, New Zealand white rabbit", "details": "antagonist 10^-5 M, 2 minute aerosol, co-administered with agonist", "quoted_text": "New Zealand white pasteurella free rabbit litter mates were exposed to A3 adenosine agonist APNEA, IB-MECA, or Cl-IB-MECA and the percent change in dynamic compliance (Cdyn) was measured as a function of the adenosine dose using known procedures. […] Allergy was induced in the rabbits using dust mites.\nThe antagonist was administered at a constant dose of 10^-5 M through a 2 minute aerosilization, followed by a 15 minute wait before the measurement of dynamic compliance."}, "[15]": {"details": "sublethal concentrations incl. 10 nM"}, "[16]": {"details": "10 nM Cl-IB-MECA with either antagonist"}, "[17]": {"details": "10 nM alone, range covers both cell lines and controls"}, "[18]": {"details": "Table 17, Cl-IB-MECA 10 nM, 48 hour"}, "[19]": {"details": "antagonist 0.5 μM plus 0.01 or 1.0 μM Cl-IB-MECA"}, "[20]": {"details": "Table 17, antagonist 50 nM plus Cl-IB-MECA 10 nM, 48 hour"}, "[21]": {"details": "Table 17, antagonist 50 nM, 48 hour"}}, "data": [{"smiles": "Nc1ccc(CCNc2ncnc3c2ncn3[C@@H]2O[C@H](CO)[C@@H](O)[C@H]2O)cc1", "note": "[APNEA]", "values": [{"measurement": "displacement of A3 specific binding", "setting": "[1]", "result": "A3 specific binding was displaced"}]}, {"smiles": "CNC(=O)[C@H]1O[C@@H](n2cnc3c(NCc4cccc(I)c4)nc(Cl)nc32)[C@H](O)[C@@H]1O", "note": "[Cl-IB-MECA, N^6-(3-iodobenzyl)-2-chloro-adenosine-5'-N-methyluronamide]", "values": [{"measurement": "expression of bak, 1321N", "setting": "[2]", "result": "found to induce the expression of bak"}, {"measurement": "expression of bak, U-937", "setting": "[3]; 30 μM", "result": "induced a significant level of expression of bak"}, {"measurement": "expression of bak, U-937", "setting": "[3]; ≤1 μM", "result": "not concentrations ≤1 μM"}, {"measurement": "expression of bak, HL-60", "setting": "[4]; 30 μM", "result": "induced a significant level of expression of bak"}, {"measurement": "expression of bak, HL-60", "setting": "[4]; ≤1 μM", "result": "not concentrations ≤1 μM"}, {"measurement": "growth curve, U-937", "setting": "[5]; 0.01 or 1.0 μM alone, 9 days", "result": "no deviation from this growth curve was observed"}, {"measurement": "effect of agonist on impairment of proliferation by antagonist, U-937", "setting": "[5]; [15]", "result": "reversed the impairment of cell proliferation"}, {"measurement": "general cell death at lower concentrations, U-937", "setting": "[5]; ≤1 μM, trypan blue", "result": "did not significantly promote"}, {"measurement": "concentration at which plateau of apoptosis begins, U-937", "setting": "[6]; 48 hours", "result": "approximately 10 μM"}, {"measurement": "plateau in the percent of apoptotic cells, U-937", "setting": "[6]; 48 hours", "result": "30-50%"}, {"measurement": "apoptosis in U-937 cells", "setting": "[6]; high concentrations (≥μM)", "result": "A similar response was observed"}, {"measurement": "apoptosis at lower concentrations, U-937", "setting": "[6]; ≤1 μM", "result": "did not significantly promote apoptosis"}, {"measurement": "growth curve, HL-60", "setting": "[7]; 0.01 or 1.0 μM alone, 9 days", "result": "no deviation from this growth curve was observed"}, {"measurement": "death of HL-60 cells in culture", "setting": "[7]; 20 or 40 μM, after 4 days", "result": "> 90", "unit": "%"}, {"measurement": "effect of agonist on impairment of proliferation by antagonist, HL-60", "setting": "[7]; [15]", "result": "reversed the impairment of cell proliferation"}, {"measurement": "general cell death at lower concentrations, HL-60", "setting": "[7]; ≤1 μM, trypan blue", "result": "did not significantly promote"}, {"measurement": "coadministration with antagonist, apoptotic cells, U-937", "setting": "[8]; [16]", "result": "suppressed the increase in apoptotic cells"}, {"measurement": "apoptosis (TUNEL), Cl-IB-MECA alone, U-937", "setting": "[8]; [17]", "result": "5-7%"}, {"measurement": "DNA fragmentation labeling (TUNEL), U-937", "setting": "[8]; 30 μM", "result": "approximately 50%"}, {"measurement": "Percentage of apoptotic cells, U937, Cl-IB-MECA alone", "setting": "[8]; [18]", "result": 5.6, "unit": "Percentage"}, {"measurement": "concentration at which plateau of apoptosis begins, HL-60", "setting": "[9]; 48 hours", "result": "approximately 10 μM"}, {"measurement": "plateau in the percent of apoptotic cells, HL-60", "setting": "[9]; 48 hours", "result": "30-50%"}, {"measurement": "apoptosis in HL-60 cells", "setting": "[9]; high concentrations (≥μM)", "result": "caused apoptosis"}, {"measurement": "apoptosis at lower concentrations, HL-60", "setting": "[9]; ≤1 μM", "result": "did not significantly promote apoptosis"}, {"measurement": "expression of bak, MCF7", "setting": "[10]", "result": "found to induce the expression of bak"}, {"measurement": "coadministration with antagonist, apoptotic cells, HL-60", "setting": "[11]; [16]", "result": "suppressed the increase in apoptotic cells"}, {"measurement": "apoptosis (TUNEL), Cl-IB-MECA alone, HL-60", "setting": "[11]; [17]", "result": "5-7%"}, {"measurement": "DNA fragmentation labeling (TUNEL), HL-60", "setting": "[11]; 30 μM", "result": "approximately 50%"}, {"measurement": "Percentage of apoptotic cells, HL-60, Cl-IB-MECA alone", "setting": "[11]; [18]", "result": 7.1, "unit": "Percentage"}]}, {"smiles": "CCOC(=O)C1=C(C)NC(c2ccccc2)=C(C(=O)OCc2ccccc2)C1C#Cc1ccccc1", "note": "(stereo not shown) [Compound 101]", "values": [{"measurement": "bak labeling, U-937", "setting": "[3]; 24 hours", "result": "present"}, {"measurement": "bak labeling, HL-60", "setting": "[4]; 24 hours", "result": "present"}, {"measurement": "growth curve with A3 antagonist plus Cl-IB-MECA, U-937", "setting": "[5]; [19]", "result": "the growth curves were nearly coincident with control curves"}, {"measurement": "inhibition at 100 µM", "setting": "[12]", "result": "< 10", "unit": "%"}, {"measurement": "survival rate after ischemia", "setting": "[13]; after 7 days", "result": 90, "unit": "%"}, {"measurement": "survival rate after ischemia", "setting": "[13]; after 90 days", "result": 80, "unit": "%"}, {"measurement": "intact neurons", "setting": "[13]; after 7 days", "result": 75, "unit": "%"}, {"measurement": "intact neurons", "setting": "[13]; after 90 days", "result": 90, "unit": "%"}, {"measurement": "percent change in dynamic compliance (Cdyn)", "setting": "[14]", "result": "much reduced"}, {"measurement": "growth curve with A3 antagonist plus Cl-IB-MECA, HL-60", "setting": "[7]; [19]", "result": "the growth curves were nearly coincident with control curves"}, {"measurement": "fluorescent labeling of apoptotic cells, U-937", "setting": "[8]; 50 nM, 24 h, approximately", "result": "30-40%"}, {"measurement": "Percentage of apoptotic cells, U937, + Cl-IB-MECA", "setting": "[8]; [20]", "result": 10.4, "unit": "Percentage"}, {"measurement": "Percentage of apoptotic cells, U937", "setting": "[8]; [21]", "result": 27.3, "unit": "Percentage"}, {"measurement": "fluorescent labeling of apoptotic cells, HL-60", "setting": "[11]; 50 nM, 24 h, approximately", "result": "30-40%"}, {"measurement": "Percentage of apoptotic cells, HL-60, + Cl-IB-MECA", "setting": "[11]; [20]", "result": 11.6, "unit": "Percentage"}, {"measurement": "Percentage of apoptotic cells, HL-60", "setting": "[11]; [21]", "result": 39.7, "unit": "Percentage"}]}]}
